Laboratory results reported in patent publication EP4603105A1, “PHARMACEUTICAL COMPOSITION CONTAINING CYCLIC COMPOUND HAVING SELECTIVE KRAS INHIBITORY EFFECT AGAINST HRAS AND NRAS” (CHUGAI SEIYAKU KABUSHIKI KAISHA, priority 2022, dated 2024).

How the values were obtained:
[1] = target: GDP-bound KRAS wild-type protein (Homo sapiens, UniProt P01116); assay: Binding to KRAS by surface plasmon resonance (SPR), dissociation constant KD
In short: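 Captured GDP-RAS (~100–300 RU) was exposed to increasing compound concentrations, 75 s per step, in running buffer with 10 µM GDP, 10 mM MgCl2 and 4% DMSO at pH 7.4.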

[2] = target: GDP-bound NRAS wild-type protein (Homo sapiens, UniProt P01111); assay: Binding to NRAS by surface plasmon resonance (SPR), KD and KD ratio to KRAS
Sequence of GDP-bound NRAS wild-type protein (P01111 whole entry): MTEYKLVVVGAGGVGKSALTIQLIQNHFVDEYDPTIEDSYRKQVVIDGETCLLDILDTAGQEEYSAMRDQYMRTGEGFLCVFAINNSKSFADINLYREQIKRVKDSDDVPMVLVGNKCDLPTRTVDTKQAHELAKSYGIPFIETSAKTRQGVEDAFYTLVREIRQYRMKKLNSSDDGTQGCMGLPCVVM
In short: (§1)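 Recombinant RAS proteins bearing a biotinylated Avi tag and loaded with GDP served as the captured ligand, recaptured fresh every cycle. Binding responses were referenced to an uncoated surface and a buffer-only blank cycle. Dissociation constants were obtained by 1:1 model fitting at 30°C.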

HRAS wild-type protein = HRAS wild-type protein (Homo sapiens, UniProt P01112); assay: Binding to HRAS by surface plasmon resonance (SPR), KD and KD ratio to KRAS
Sequence of HRAS wild-type protein (P01112 whole entry): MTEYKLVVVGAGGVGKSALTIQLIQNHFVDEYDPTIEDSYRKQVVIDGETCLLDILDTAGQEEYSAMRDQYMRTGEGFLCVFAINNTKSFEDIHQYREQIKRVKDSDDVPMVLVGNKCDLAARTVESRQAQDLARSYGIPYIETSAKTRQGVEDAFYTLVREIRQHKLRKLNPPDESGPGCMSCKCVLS
In short: as §1

[3] = system: human lung cancer strain NCI-H441; assay type: cell-based
In short: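 Signal came from […] measured per well once the reagent was added. Beforehand, cells were cultured at 37°C and 5% carbon dioxide on a compound series serially diluted in dimethyl sulfoxide.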

[4] = ratio of KD for GDP-bound NRAS wild-type protein to KD for KRAS
[5] = ratio of KD for HRAS wild-type protein to KD for KRAS
[6] = Single Cycle Kinetics, 1:1 binding model
[7] = ratio of the KD value with respect to GDP-bound NRAS wild-type protein to the KD value with respect to KRAS
[8] = ratio of the KD value with respect to HRAS wild-type protein to the KD value with respect to KRAS

Sequence of GDP-bound KRAS wild-type protein (P01116 1-188 isoform P01116-2): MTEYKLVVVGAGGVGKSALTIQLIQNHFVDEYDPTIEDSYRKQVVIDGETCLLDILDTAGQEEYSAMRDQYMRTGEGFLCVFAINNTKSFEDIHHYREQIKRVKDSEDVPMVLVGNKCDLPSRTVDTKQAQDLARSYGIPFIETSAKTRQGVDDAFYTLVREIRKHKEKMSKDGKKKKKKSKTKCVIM

SMILES	Kd ([1]; Single Cycle Kinetics) [nM]	NRAS /KRAS [2, 4]	HRAS /KRAS (HRAS wild-type protein; [5])	IC50 [3] [nM]	Kd [1, 6] [nM]	NRAS /KRAS [2, 7]	HRAS /KRAS (HRAS wild-type protein; [8])	Kd ([1]; 1:1 binding model) [nM]	NRAS /KRAS ([2]; ratio of KD value for GDP-bound NRAS wild-type protein to KD value for KRAS (SPR))	HRAS /KRAS (HRAS wild-type protein; ratio of KD value for HRAS wild-type protein to KD value for KRAS (SPR))
CCCCO[C@H]1CCN2C(=O)[C@H](CCc3cc(F)c(C(F)(F)F)c(F)c3)NC(=O)CN(C)C(=O)[C@H](Cc3ccc(C(F)(F)F)cc3)N3CCCCC[C@@H](C3=O)N(C)C(=O)CN(C)C(=O)[C@H]([C@@H](C)CC)NC(=O)[C@H](CC(C)C)N(C)C(=O)C[C@@H](C(=O)N3CCOCC3)N(C)C(=O)[C@H](C3CCCC3)N(C)C(=O)C3(CCC3)NC(=O)[C@H]12 [PP1009]	2	B (a compound having 3 or more and less than 10 is denoted as B)	B (a compound having 3 or more and less than 10 is denoted as B)	195	–	–	–	–	–	–
CCO[C@@H]1C[C@H]2C(=O)NC3(CCC3)C(=O)N(C)[C@@H](C(CC)CC)C(=O)N(C)[C@H](C(=O)N3CCOCC3)CC(=O)N(C)[C@@H](CC(C)C)C(=O)N[C@@H]([C@@H](C)CC)C(=O)N(C)CC(=O)N(C)[C@H]3CCCCCN(C3=O)[C@@H](Cc3ccc(C(F)(F)F)cc3)C(=O)N(C)CC(=O)N[C@@H](CCc3cc(F)c(C(F)(F)F)c(F)c3)C(=O)N2C1 [PP0820]	1.2	A (a compound having 10 or more and less than 20 is denoted as A)	B (a compound having 3 or more and less than 10 is denoted as B)	60.1	–	–	–	–	–	–
CCCOC[C@H]1C(=O)N[C@@H]([C@@H](C)CC)C(=O)N(C)CC(=O)N(C)[C@H]2C/C=C\CCN(C2=O)[C@@H](Cc2ccc(C)cc2)C(=O)N(C)CC(=O)N[C@@H](CCc2ccc(C(F)(F)F)c(Cl)c2)C(=O)N2C[C@H](CC)C[C@H]2C(=O)NC2(CC(C)(C)C2)C(=O)N(C)[C@@H](C2CCCC2)C(=O)N(C)[C@H](C(=O)N(C)C)CC(=O)N1C [PP2235]	–	–	–	22.1	0.28	A (a compound having 10 or more and less than 20 is denoted as A)	A (a compound having 10 or more and less than 20 is denoted as A)	–	–	–
CCC[C@H]1C(=O)N[C@@H]([C@@H](C)CC)C(=O)N(C)CC(=O)N(C)[C@H]2C/C=C\CCN(C2=O)[C@@H](Cc2ccc(C(F)(F)F)cc2)C(=O)N(C)CC(=O)N[C@@H](CCc2ccc(C(F)(F)F)c(Cl)c2)C(=O)N2CC3(CC3)C[C@H]2C(=O)NC2(CC(C)(C)C2)C(=O)N(C)[C@@H](CC(F)(F)F)C(=O)N(C)[C@H](C(=O)N(C)C)CC(=O)N1C [PP2985]	–	AA (a compound having 20 or more is denoted as AA)	A (a compound having 10 or more and less than 20 is denoted as A)	46.5	–	–	–	1.4	–	–
CC[C@H](C)[C@@H]1NC(=O)[C@H](CC(C)C)N(C)C(=O)C[C@@H](C(=O)N2CCOCC2)N(CC)C(=O)[C@H](C2CCCC2)N(C)C(=O)C2(CCC2)NC(=O)[C@@H]2CC(F)(F)CN2C(=O)[C@H](CCc2cc(F)c(C(F)(F)F)c(F)c2)NC(=O)CN(C)C(=O)[C@H](Cc2ccc(C(F)(F)F)cc2)N2CCCCC[C@@H](C2=O)N(C)C(=O)CN(C)C1=O [PP0954]	7.5	A (a compound having 10 or more and less than 20 is denoted as A)	A (a compound having 10 or more and less than 20 is denoted as A)	438	–	–	–	–	–	–
CC[C@H](C)[C@@H]1NC(=O)[C@H](CC(C)C)N(C)C(=O)C[C@@H](C(=O)N2CCOCC2)N(C)C(=O)[C@H](C2CCCC2)N(C)C(=O)C2(CCC2)NC(=O)[C@@H]2[C@@H](OCC3CCCC3)CCN2C(=O)[C@H](CCc2cc(F)c(C(F)(F)F)c(F)c2)NC(=O)CN(C)C(=O)[C@H](Cc2ccc(C(F)(F)F)cc2)N2CCCCC[C@@H](C2=O)N(C)C(=O)CN(C)C1=O [PP1011]	3.7	A (a compound having 10 or more and less than 20 is denoted as A)	B (a compound having 3 or more and less than 10 is denoted as B)	314	–	–	–	–	–	–
CCO[C@@H]1C[C@H]2C(=O)NC3(CC(C)(C)C3)C(=O)N(C)[C@@H](C3CCCC3)C(=O)N(C)[C@H](C(=O)N(C)CC)CC(=O)N(C)[C@@H](CC(C)C)C(=O)N[C@@H]([C@@H](C)CC)C(=O)N(C)CC(=O)N(C)[C@H]3C/C=C\CCN(C3=O)[C@@H](Cc3ccc(C(F)F)cc3)C(=O)N(C)CC(=O)N[C@@H](CCc3ccc(C4CC4)c(C)c3)C(=O)N2C1 [PP3156]	–	A (a compound having 10 or more and less than 20 is denoted as A)	A (a compound having 10 or more and less than 20 is denoted as A)	63.8	–	–	–	2	–	–
CCC[C@H]1C(=O)N[C@H]([C@@H](C)CC)C(=O)N(C)CC(=O)N(C)[C@H]2C/C=C\CCN(C2=O)[C@@H](Cc2ccc(C)cc2)C(=O)N(C)CC(=O)N[C@@H](CCc2cc(F)c(C(F)F)c(F)c2)C(=O)N2C[C@H](OCC)C[C@H]2C(=O)NC2(CC(C)(C)C2)C(=O)N(C)[C@@H](C(CC)CC)C(=O)N(C)[C@H](C(=O)N(C)C)CC(=O)N1C (stereo in doubt) [PP2783]	–	A (a compound having 10 or more and less than 20 is denoted as A)	A (a compound having 10 or more and less than 20 is denoted as A)	33.9	–	–	–	1.7	–	–
CCO[C@@H]1C[C@H]2C(=O)NC3(CC(C)(C)C3)C(=O)N(C)[C@@H](C3CCCC3)C(=O)N(C)[C@H](C(=O)N(C)C)CC(=O)N(C)[C@@H]([C@@H](C)OC)C(=O)N[C@@H]([C@@H](C)CC)C(=O)N(C3CC3)CC(=O)N(C)[C@H]3C/C=C\CCN(C3=O)[C@@H](Cc3ccc(C)cc3)C(=O)N(C)CC(=O)N[C@@H](CCc3ccc(C(F)(F)F)c(OC)c3)C(=O)N2C1 [PP3210]	–	A (a compound having 10 or more and less than 20 is denoted as A)	B (a compound having 3 or more and less than 10 is denoted as B)	19.1	–	–	–	0.53	–	–
CCO[C@@H]1C[C@H]2C(=O)NC3(CCC3)C(=O)N(C)[C@@H](C3CCCC3)C(=O)N(C)[C@H](C(=O)N(C)C)CC(=O)N(C)[C@@H](CC)C(=O)N[C@@H]([C@@H](C)CC)C(=O)N(C)CC(=O)N(C)[C@H]3CCCCCN(C3=O)[C@@H](Cc3ccc(F)c(F)c3)C(=O)N(C)CC(=O)N[C@@H](CCc3cc(F)c(C(F)(F)F)c(F)c3)C(=O)N2C1 [PP0907]	0.16	B (a compound having 3 or more and less than 10 is denoted as B)	B (a compound having 3 or more and less than 10 is denoted as B)	24.8	–	–	–	–	–	–
CCO[C@@H]1C[C@H]2C(=O)NC3(CCC3)C(=O)N(C)[C@@H](C3CCCC3)C(=O)N(C)[C@H](C(=O)N(C)C)CC(=O)N(C)[C@@H](CC(C)C)C(=O)N[C@@H]([C@@H](C)CC)C(=O)N(C)CC(=O)N(C)[C@H]3CC(C)=CCN(C3=O)[C@@H](Cc3ccc(C(F)(F)F)cc3)C(=O)N(C)CC(=O)N[C@@H](CCc3cc(F)c(C(F)(F)F)c(F)c3)C(=O)N2C1 [PP1032]	0.38	C (A compound having a KD ratio of 0.1 or more and less than 3 is denoted as C)	C (A compound having a KD ratio of 0.1 or more and less than 3 is denoted as C)	43.9	–	–	–	–	–	–
CCO[C@@H]1CCN2C(=O)[C@H](CCc3cc(F)c(C(F)(F)F)c(F)c3)NC(=O)CN(C)C(=O)[C@H](Cc3ccc(C(F)(F)F)cc3)N3CCCCC[C@@H](C3=O)N(C)C(=O)CN(C)C(=O)[C@H]([C@@H](C)CC)NC(=O)[C@H](CC(C)C)N(C)C(=O)C[C@@H](C(=O)N3CCOCC3)N(C)C(=O)[C@H](C3CCCC3)N(C)C(=O)C3(CCC3)NC(=O)[C@H]12 [PP1082]	3.5	A (a compound having 10 or more and less than 20 is denoted as A)	B (a compound having 3 or more and less than 10 is denoted as B)	300	–	–	–	–	–	–
CCC[C@H]1C(=O)N[C@@H](C2CCCC2)C(=O)N(C)CC(=O)N(C)[C@H]2C/C=C\CCN(C2=O)[C@@H](Cc2ccc(C)cc2)C(=O)N(C)CC(=O)N[C@@H](CCc2ccc(C(F)(F)F)c(Cl)c2)C(=O)N2C[C@H](OCC)C[C@H]2C(=O)NC2(CC(C)(C)C2)C(=O)N(C)[C@@H](CC(F)(F)F)C(=O)N(C)[C@H](C(=O)N(C)C)CC(=O)N1C [PP2192]	–	–	–	91.9	3.3	A (a compound having 10 or more and less than 20 is denoted as A)	A (a compound having 10 or more and less than 20 is denoted as A)	–	–	–
CCC[C@H]1C(=O)N[C@@H]([C@@H](C)CC)C(=O)N(C)CC(=O)N(C)[C@H]2C/C=C\CCN(C2=O)[C@@H](Cc2ccc(C)cc2)C(=O)N(C)CC(=O)N[C@@H](CCc2ccc(C(F)(F)F)c(OC)c2)C(=O)N2CC3(CC3)C[C@H]2C(=O)NC2(CC(C)(C)C2)C(=O)N(C)[C@@H]([C@@H](C)CC)C(=O)N(C)[C@H](C(=O)N(C)C)CC(=O)N1C [PP3011]	–	A (a compound having 10 or more and less than 20 is denoted as A)	B (a compound having 3 or more and less than 10 is denoted as B)	31.1	–	–	–	0.58	–	–
CC[C@H](C)[C@@H]1NC(=O)[C@H](CC2CC2)N(C)C(=O)C[C@@H](C(=O)N(C)C)N(C)C(=O)[C@H](C2CCCC2)N(C)C(=O)C2(CCC2)N(C)C(=O)[C@@H]2C[C@@H](C)CN2C(=O)[C@H](CCc2cc(F)c(C(F)(F)F)c(F)c2)NC(=O)CN(C)C(=O)[C@H](Cc2ccc(C)cc2)N2CC/C=C\C[C@@H](C2=O)N(C)C(=O)CN(C)C1=O [PP1800]	–	–	–	6.5	0.051	–	–	–	A (a compound having 10 or more and less than 20 is denoted as A)	A (a compound having 10 or more and less than 20 is denoted as A)
